From patent publication US9011936B2, “Extract of Rosmarinus officinalis L. leaves for pharmaceutical applications” (Naturex, S.A., priority 2009, dated 2015)

Tests used:
olive oil-loaded mice = conditions: doses of 5-20 mg/kg; cited from earlier work
pancreatic lipase = target: T1, pancreatic lipase (Homo sapiens, UniProt P16233); conditions: cited from earlier work
T1 sequence (P16233 17-465): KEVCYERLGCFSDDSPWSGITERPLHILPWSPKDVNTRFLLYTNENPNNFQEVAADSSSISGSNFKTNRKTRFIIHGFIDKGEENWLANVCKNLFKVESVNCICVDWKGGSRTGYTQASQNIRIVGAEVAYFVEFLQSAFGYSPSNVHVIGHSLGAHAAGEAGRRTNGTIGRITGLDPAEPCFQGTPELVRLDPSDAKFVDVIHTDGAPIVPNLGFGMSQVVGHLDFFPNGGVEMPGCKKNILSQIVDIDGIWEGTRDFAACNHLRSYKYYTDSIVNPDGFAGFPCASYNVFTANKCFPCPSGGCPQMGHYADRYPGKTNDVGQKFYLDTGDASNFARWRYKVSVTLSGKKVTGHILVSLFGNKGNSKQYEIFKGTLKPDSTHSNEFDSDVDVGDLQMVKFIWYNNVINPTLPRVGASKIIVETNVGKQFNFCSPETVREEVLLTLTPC

mice fed a high fat diet = conditions: 20 mg/kg/day; after 14 days; cited from earlier work
human PPARγ = target: T2, human PPARγ (Homo sapiens, UniProt P37231); conditions: cited from earlier work
T2 sequence (P37231 1-505): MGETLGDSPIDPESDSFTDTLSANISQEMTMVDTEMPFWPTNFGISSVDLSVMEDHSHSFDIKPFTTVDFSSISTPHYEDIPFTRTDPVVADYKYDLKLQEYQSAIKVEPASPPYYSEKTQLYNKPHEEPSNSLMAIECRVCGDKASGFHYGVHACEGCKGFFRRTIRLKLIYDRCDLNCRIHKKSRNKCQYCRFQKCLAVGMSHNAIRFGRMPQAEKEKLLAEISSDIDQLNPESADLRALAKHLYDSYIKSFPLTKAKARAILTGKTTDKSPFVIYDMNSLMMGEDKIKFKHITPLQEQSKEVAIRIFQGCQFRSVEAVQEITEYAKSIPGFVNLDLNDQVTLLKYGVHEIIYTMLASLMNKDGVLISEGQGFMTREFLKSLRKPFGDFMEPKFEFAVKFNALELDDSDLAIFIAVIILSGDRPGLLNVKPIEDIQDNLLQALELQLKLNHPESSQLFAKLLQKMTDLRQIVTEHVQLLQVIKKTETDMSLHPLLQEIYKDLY

LDL = assay: Cu^2+-induced LDL oxidation in vitro (conjugated dienes, absorbance at 234 nm); type: biochemical; design: key to Lag phase / Oxidation rate / Maximum quantity of dienes: NC: Not calculated since the samples totally inhibits the LDL from oxidation
Method: LDL was concentrated from the plasma of normolipidemic donors by density gradient ultracentrifugation. Prior to oxidation, LDL was diluted in a phosphate buffered saline (PBS) and dialyzed against PBS at 4° C. to remove EDTA. The protein content was determined and adjusted to obtain 0.125 mg of protein/mL. […] The amounts of conjugated dienes were measured by determining the increased absorbance at 234 nm at 10 min intervals for a course span of 720 min using a Tecan Ultra Spectrophotometer (Tecan, Austria). Results were expressed as the relative absorbance at 234 nm. The lag phase, oxidation rate, and the maximum quantity of conjugated dienes were calculated. Results are reported as the mean±SD of three trials for each test. Differential between groups was calculated using the Student's t-test (XLSTAT 2008, Addinsoft™, USA), and the statistical significance was set at P<0.05.

SMILES	triglyceride elevation (olive oil-loaded mice)	pancreatic lipase activity (pancreatic lipase)	gain of body weight and accumulation of epididymal fat weight (mice fed a high fat diet)	activation of human PPARγ (human PPARγ)	Lag phase (LDL; 10 μM, mean ± SD, three trials)	Maximum quantity of dienes (LDL; 10 μM, mean ± SD, three trials)	Oxidation rate (LDL; 10 μM, mean ± SD, three trials)	Lag phase (LDL; 100 μM)	Maximum quantity of dienes (LDL; 100 μM)	Oxidation rate (LDL; 100 μM)	inhibition of LDL oxidation (LDL; 100 μM)
CC(C)c1cc2c(c(O)c1O)[C@@]1(C(=O)O)CCCC(C)(C)[C@@H]1CC2 [carnosic acid]	significantly inhibited	substantially inhibited	reduced	activators							
CC(C)c1cc2c(c(O)c1O)[C@@]13CCCC(C)(C)[C@@H]1C[C@@H]2OC3=O [carnosol]		substantially inhibited		activators							
Cc1c(C)c2c(c(C)c1O)CCC(C)(C(=O)O)O2 (stereo not shown) [Trolox]					180 ± 5.2 min	99.0 ± 1.2 nmol/mg of LDL	80.1 ± 4.1 min⁻¹	NC	NC	NC	complete inhibition
